One test has as its system Alternaria alternata. Description: Antifungal bioassay, poisoned medium technique. Type of test: cell-based. Conditions: 168 h, read-out: MIC values against Alternaria alternata. How it is done:
(§1) Anti-microbial assays of the isolated componds were performed against the selected strain of fungi i.e., Alternaria alternata, Aspergillus fumigatus, Aspergillus niger, and Penicillium citrii.
(§2) Alternaria alternata, Aspergillus fumigatus, Aspergillus niger, and Penicillium citrii strains were obtained from the Biotechnology lab at COMSATS University Islamabad. The antifungal activity of isolated compounds was assessed using poisoned medium technique. Two percent malt extract agar medium was generated by autoclaving at 121 °C for 30 minutes. Weighed volumes of the compounds were dissolved in […] of sterilized distilled water and put to flasks containing 59.5 mL of malt extract agar medium while they were still molten to obtain final concentrations of 100, 300, 500, 700, 900, and 1000 ppm. The control received the same amount of distilled water. Each sterile Petri plate with a diameter of 90 mm was filled with 20 mL of each medium and allowed to solidify. 5 mm diameter mycelial discs were produced from the tips of 5–7 day-old cultures of the four test fungus species and put in the center of each Petri dish using a sterile cork borer. Every treatment was duplicated three times. Plates were cultured in an incubator at 25 ± 2 °C for seven days. To calculate the rate of fungal growth, the three diameters of each colony were measured at right angles and averaged. Table 2 MIC values (μM) of the isolated compounds against Alternaria alternata, Aspergillus fumigatus, Aspergillus niger, and Penicillium citrii strains.[19]

In a further test the test system is Penicillium citrii. The experiment in a line: Antifungal bioassay, poisoned medium technique. Type of test: cell-based. Conditions: 168 h, read-out: MIC values against Penicillium citrii. How it is done: as §1, §2
The next test deals with Aspergillus niger. The experiment in a line: Antifungal bioassay, poisoned medium technique. Format: cell-based. Conditions: 168 h, read-out: MIC values against Aspergillus niger. How it is done:
as §1, §2

Another test deals with Aspergillus fumigatus. Description: Antifungal bioassay, poisoned medium technique. Type of test: cell-based. Conditions: 168 h, read-out: MIC values against Aspergillus fumigatus. How it is done: as §1, §2
Another test concerns the target Jack bean urease (Canavalia ensiformis, UniProt P07374). Description: biochemical. Format: biochemical. Conditions: for inhibition at 500 µM: pH 6.8, read-out: % Inhibition of urease. How it is done:
The inhibition potential of the isolated compounds against urease was investigated using a SpectraMax M2 reader using 96-well microplates.
The kinetic assay involved preparing varying concentrations of both the test compound and the substrate (urea), spanning 0 μM, 5 μM, 10 μM, 15 μM, and 20 μM. The resulting data was utilized to construct a Lineweaver–Burk plot.
In 96-well plates were incubated at 37 °C for 15 min, reaction mixtures consisting of 25 μL of test compounds (each 0.5 mM), 25 μL of enzyme solution (Jack bean urease) and 55 μL of buffers containing 20.79 mM urea. The indophenol method described by Weatherburn[21] was used to determine urease inhibitor activity by measuring ammonia production. Briefly, to each well were added 70 μL of alkaline reagent (0.5% w/v NaOH and 0.1% active chloride, NaOCl) and 45 μL of phenolic reagent (1% w/v phenol and 0.005% w/v sodium nitroprusside). The microplate reader (Molecular Devices, USA) was used to measure the increase in absorbance at 650 nm after 50 min. A final volume of 245 μL was required to perform all reactions in a triplicate. The results (absorbance change per minute) were processed using SoftMax Pro software (Molecular Devices, USA). All assays were performed at pH 6.8. Inhibition percentages were calculated from the formula% Inhibition = 100 − (Abs(sample)/Abs(control)) × 100where “A” is the absorbance of the “test well” as well as the “control”. Thiourea was used as a standard.

The subject of test [1] is human HepG2 hepatic cancer cells. Description: MTT cell viability assay. Conditions: Homo sapiens; for viability at 200 µg: HepG2, 48 h; for IC50: HepG2, calculated using Graph Pad Prism software, read-out: IC50 against HepG2. Type of test: cell-based. How it is done:
The human liver cells were cultivated in Dulbecco's modified Eagle medium (DMEM) in which 100 U mL^−1 penicillin, 10% fetal bovine and […] streptomycin were added and kept at 37 °C in a […] carbon dioxide induced humidified environment. The human liver cells prepared as per above procedure were then treated with synthesized compounds diluted to 0.05% DMSO concentration.
Using MTT assay, the % viability of cancer cells 36 was evaluated. According to the standard procedure, HepG2 cells were treated with various dosages of synthesized compounds for 48 hours each. The cells were then incubated for 4 hours at 37 °C with 10μ MTT reagent (5 mg mL^−1). Next, in 150 μL DMSO was added to dissolve formazan crystals. The λmax was recorded at 409 nm in a microplate reader (thermos scientific).

Where [2] appears, read: HepG2, MTT, 48 hours, at 200 μg.
Where [3] appears, read: poisoned medium, 25 ± 2 °C, seven days.

The values below come from paper PMC10945739, “Exploring Cassia mimosoïdes as a promising natural source of steroids with potent anti-cancer, urease inhibition, and antimicrobial properties” (RSC Advances, 2024).

Molecules are shown by their SMILES. Values after ≈ are worked out from the molar mass of the structure shown. Like-named read-outs stand apart in the source and are kept apart here.

Jack bean urease, sequence (P07374 whole entry, looked up): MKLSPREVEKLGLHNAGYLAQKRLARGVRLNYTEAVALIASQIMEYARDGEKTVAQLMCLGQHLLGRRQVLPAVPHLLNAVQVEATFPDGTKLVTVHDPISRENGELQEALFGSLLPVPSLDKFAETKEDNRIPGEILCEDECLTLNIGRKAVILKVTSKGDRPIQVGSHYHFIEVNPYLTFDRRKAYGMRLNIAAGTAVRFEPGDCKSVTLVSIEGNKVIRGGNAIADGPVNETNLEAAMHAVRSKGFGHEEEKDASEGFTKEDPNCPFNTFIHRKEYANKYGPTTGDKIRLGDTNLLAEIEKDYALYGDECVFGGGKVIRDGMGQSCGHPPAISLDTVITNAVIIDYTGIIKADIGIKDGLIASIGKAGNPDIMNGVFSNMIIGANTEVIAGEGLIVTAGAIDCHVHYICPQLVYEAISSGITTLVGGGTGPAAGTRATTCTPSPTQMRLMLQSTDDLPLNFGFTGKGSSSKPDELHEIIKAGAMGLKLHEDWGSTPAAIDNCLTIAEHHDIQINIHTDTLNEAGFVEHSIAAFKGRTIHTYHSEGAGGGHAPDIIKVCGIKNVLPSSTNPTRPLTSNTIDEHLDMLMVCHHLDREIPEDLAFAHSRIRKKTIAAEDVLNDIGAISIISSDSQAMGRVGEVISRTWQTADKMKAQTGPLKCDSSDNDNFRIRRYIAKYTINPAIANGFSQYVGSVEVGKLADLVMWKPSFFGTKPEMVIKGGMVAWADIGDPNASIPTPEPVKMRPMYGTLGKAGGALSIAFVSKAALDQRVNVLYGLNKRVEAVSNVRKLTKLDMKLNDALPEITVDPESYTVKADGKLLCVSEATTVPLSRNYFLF

One may read the MIC as the lowest concentration found to suppress growth. For `O=c1cc(-c2ccc(O)cc2)oc2c([C@@H]3O[C@H](CO)[C@@H](O)[C@H](O)[C@H]3O)c(O)cc(O)c12` [Apigenin-8-C-β-D-glucopyranoside], the MIC is 0.025 ± 0.007 µM (≈ 10.8 ng/mL) with Alternaria alternata, 0.01 ± 0.006 µM (≈ 4.32 ng/mL) in the test on Penicillium citrii, 0.015 ± 0.001 µM (≈ 6.49 ng/mL) with Aspergillus niger and 0.01 ± 0.006 µM (≈ 4.32 ng/mL) with Aspergillus fumigatus.
Broadly, the IC50 is the midpoint of a concentration-inhibition curve. By inhibition is commonly meant the change of the read-out against control, counted positive when it falls. Usually viability stands for a read-out of living cells in per cent, often relative to untreated cells. Higher therefore signals better survival. Take `COc1cc(O)cc2oc(-c3ccc(O)c(O)c3)cc(=O)c12` [Compound 4, Luteolin-5-methyl ether]: on Jack bean urease, the IC50 was 3.87 ± 0.24 µM and the inhibition at 500 µM came out at 82.7%. The viability at 200 µg in test [1] (setting [2]) is 90.5 ± 2.15%.
Regarding `CCC(CCC(C)C1CCC2C3CC(O)C4=CC(=O)CCC4(C)C3CCC12C)C(C)C` (stereo not shown) [Synthesized compound], on Jack bean urease, the inhibition at 500 µM stood at 69%. The IC50 on Jack bean urease (read-out: IC50 ± SEM, urease, pH 6.8) was found to be 8.03 ± 0.19 µM.
As for `O=c1cc(-c2ccc(O)c(O)c2)oc2c([C@@H]3O[C@H](CO)[C@@H](O)[C@H](O)[C@H]3O)c(O)cc(O)c12` [Compound 6, Luteolin-8-C-β-D-glucopyranoside], on Jack bean urease, the midpoint of inhibition, the IC50, lay at 5.03 ± 0.12 µM and the inhibition at 500 µM came out at 71.5%. In addition, the viability at 200 µg in test [1] (setting [2]) came out at 89.2 ± 2.5%.
Turning to `O=c1cc(-c2ccc(O)cc2)oc2c([C@@H]3O[C@H](CO)[C@@H](O)[C@H](O)[C@H]3O)c(O)cc(O)c12` [Compound 5, Apigenin-8-C-β-D-glucopyranoside], at Jack bean urease, the half-inhibitory concentration (IC50) stood at 4.73 ± 0.22 µM and the inhibition at 500 µM came to 77.5%. The same compound displayed a viability at 200 µg in test [1] of 94.7 ± 7.4%.
On the same counts, the results for `COc1cc(O)c2c(c1)C(=O)c1cc(C)cc(O)c1C2=O` [Compound 13, Physcion] are 6.24 ± 0.3 µM, 63.5% and 87.4 ± 2.55%.
As for `CC[C@H](CC[C@@H](C)[C@H]1CC[C@H]2[C@@H]3CC(=O)C4=CC(=O)CC[C@]4(C)[C@H]3CC[C@]12C)C(C)C` [Compound 9, Stigmast-4-en-3,6-dione], at Jack bean urease, the inhibition at 500 µM turned out to be 13.4%. In test [1], the IC50 is 7.8 µM.
Take `Cc1cc(O)c2c(c1)C(=O)c1cccc(O)c1C2=O` [Chrysophanol]: the MIC in the test with Alternaria alternata (setting [3]) is 0.012 ± 0.003 µM (≈ 3.05 ng/mL); in the test with Penicillium citrii (setting [3]), 0.05 ± 0.001 µM (≈ 12.7 ng/mL); in the test on Aspergillus niger (setting [3]) it was 0.03 ± 0.002 µM (≈ 7.63 ng/mL); with Aspergillus fumigatus (setting [3]), 0.06 ± 0.001 µM (≈ 15.3 ng/mL).
Consider `Cc1cc(O)c2c(c1)C(=O)c1cccc(O)c1C2=O` [Compound 12, Chrysophanol], for which, at Jack bean urease, the IC50 amounted to 5.92 ± 0.25 µM and the inhibition at 500 µM turned out to be 78.2%. Moreover, the viability at 200 µg in test [1] (setting [2]) is 59.3 ± 2.2%.
Take `CCCCCCCCCCCCCCCCCCC(=O)O` [Compound 14, Nonadecanoic acid]: on Jack bean urease, the midpoint of inhibition, the IC50, lay at 1.95 ± 0.31 µM and the inhibition at 500 µM stood at 80.4%.
As to `CC[C@H](CC[C@@H](C)[C@H]1CC[C@H]2[C@@H]3C[C@H](O)C4=C[C@@H](O)CC[C@]4(C)[C@H]3CC[C@]12C)C(C)C` [Compound 10, Stigmast-4-en-3β,6α-diol], at Jack bean urease, half-maximal inhibition (IC50) was put at 6.68 ± 0.11 µM and the inhibition at 500 µM worked out at 76.6%. In addition, in test [1] (setting [2]), the viability at 200 µg was 14.5 ± 0.68%. In test [1], the IC50 was 7.8 µM.
On to `COc1cc(O)cc2oc(-c3ccc(O)c(O)c3)cc(=O)c12` [Luteolin-5-methyl ether], for which the minimum inhibitory concentration (MIC) in the test on Alternaria alternata (setting [3]) was 0.03 ± 0.006 µM (≈ 9.01 ng/mL); in the test with Penicillium citrii (setting [3]) it was 0.06 ± 0.004 µM (≈ 18 ng/mL); with Aspergillus niger (setting [3]) it was 0.01 ± 0.006 µM (≈ 3 ng/mL); in the test with Aspergillus fumigatus (setting [3]) it was 0.04 ± 0.002 µM (≈ 12 ng/mL).
